# Reference: patent US20110178064A1, “SPIRO CONDENSED […] DERIVATIVES FOR USE AS ANTIBACTERIAL” (A[…]&D, priority 2007, published 2011)
# Target: Escherichia coli DNA gyrase A/B tetramer (Escherichia coli, UniProt P0AES4+P0AES6)
# Experiment: DNA gyrase supercoiling activity fluorescence polarisation assay
# Format: biochemical
# Conditions: not given
# Outline: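 Gyrase supercoiling reactions quenched with 40 nM 5′-BODIPY-FL oligodeoxynucleotide triplex probe in pH 3.5 NaCl/sodium acetate buffer; fluorescence anisotropy read after 60 min (485/535 nm).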
# Escherichia coli DNA gyrase A/B tetramer, sequence (P0AES4 whole entry, one chain of several): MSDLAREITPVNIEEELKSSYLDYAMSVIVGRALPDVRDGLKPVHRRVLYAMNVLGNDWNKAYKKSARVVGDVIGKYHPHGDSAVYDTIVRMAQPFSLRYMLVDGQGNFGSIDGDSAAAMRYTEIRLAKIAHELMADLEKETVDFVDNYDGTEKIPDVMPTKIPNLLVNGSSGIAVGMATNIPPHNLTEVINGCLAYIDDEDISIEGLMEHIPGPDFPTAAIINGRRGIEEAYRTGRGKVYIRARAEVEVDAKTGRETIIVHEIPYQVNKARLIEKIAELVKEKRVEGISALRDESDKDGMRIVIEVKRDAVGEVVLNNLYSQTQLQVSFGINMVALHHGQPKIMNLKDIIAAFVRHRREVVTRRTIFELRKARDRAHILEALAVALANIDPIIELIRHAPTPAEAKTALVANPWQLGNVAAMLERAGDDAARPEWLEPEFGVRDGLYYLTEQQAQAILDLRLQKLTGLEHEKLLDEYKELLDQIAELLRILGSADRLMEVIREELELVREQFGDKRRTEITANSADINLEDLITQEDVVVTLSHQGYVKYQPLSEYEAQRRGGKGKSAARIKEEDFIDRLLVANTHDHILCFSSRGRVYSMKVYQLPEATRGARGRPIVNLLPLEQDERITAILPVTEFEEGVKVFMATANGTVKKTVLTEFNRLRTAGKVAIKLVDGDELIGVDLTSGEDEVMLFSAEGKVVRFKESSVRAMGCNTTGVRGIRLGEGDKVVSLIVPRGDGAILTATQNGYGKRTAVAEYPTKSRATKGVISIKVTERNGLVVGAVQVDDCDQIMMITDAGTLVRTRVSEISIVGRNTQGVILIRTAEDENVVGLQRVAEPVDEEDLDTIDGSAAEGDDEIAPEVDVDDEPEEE
row,SMILES,IC50
1,"C[C@@H]1CN2c3ccc(-c4ccoc4)nc3CC3(C(=O)NC(=O)NC3=O)[C@H]2[C@H](C)O1 (relative stereo) [Example 76, (2R,4S,4aS)-rel-8-(Furan-3-yl)-2,4-dimethyl-1,2,4,4a-tetrahydro-2′H,6H-spiro[1,4-oxazino[4,3-a][1,5]naphthyridine-5,5′-pyrimidine]-2′,4′,6′(1′H,3′H)-trione]",21 µM
2,"Cc1noc(C)c1-c1ccc2c(n1)CC1(C(=O)NC(=O)NC1=O)[C@H]1[C@H](C)O[C@H](C)CN21 (relative stereo) [Example 77, (2R,4S,4aS)-rel-8-(3,5-Dimethylisoxazol-4-yl)-2,4-dimethyl-1,2,4,4a-tetrahydro-2′H,6H-spiro[1,4-oxazino[4,3-a][1,5]naphthyridine-5,5′-pyrimidine]-2′,4′,6′(1′H,3′H)-trione]",8 µM
3,"C[C@@H]1CN2c3ccc(-c4ccncc4)nc3CC3(C(=O)NC(=O)NC3=O)[C@H]2[C@H](C)O1 (relative stereo) [Example 78, (2R,4S,4aS)-rel-2,4-dimethyl-8-(pyridin-4-yl)-1,2,4,4a-tetrahydro-2′H,6H-spiro[1,4-oxazino[4,3-a][1,5]naphthyridine-5,5′-pyrimidine]-2′,4′,6′(1′H,3′H)-trione]",2 µM
4,"C[C@@H]1CN2c3ccc(-c4cnn(C)c4)nc3CC3(C(=O)NC(=O)NC3=O)[C@H]2[C@H](C)O1 (relative stereo) [Example 79, (2R,4S,4aS)-rel-2,4-Dimethyl-8-(1-methyl-1H-pyrazol-4-yl)-1,2,4,4a-tetrahydro-2′H,6H-spiro[1,4-oxazino[4,3-a][1,5]naphthyridine-5,5′-pyrimidine]-2′,4′,6′(1′H,3′H)-trione]",17 µM
5,"C[C@@H]1CN2c3ccc(-c4cnccn4)nc3CC3(C(=O)NC(=O)NC3=O)[C@H]2[C@H](C)O1 (relative stereo) [Example 80, (2R,4S,4aS)-rel-2,4-Dimethyl-8-(pyrazin-2-yl)-1,2,4,4a-tetrahydro-2′H,6H-spiro[1,4-oxazino[4,3-a][1,5]naphthyridine-5,5′-pyrimidine]-2′,4′,6′(1′H,3′H)-trione]",> 5 µM
6,"C[C@@H]1CN2c3ncc(-c4ccc(F)cc4)cc3CC3(C(=O)NC(=O)NC3=O)[C@H]2[C@H](C)O1 (relative stereo) [Example 81, (6aS,7S,9R)-rel-3-(4-Fluorophenyl)-7,9-dimethyl-6a,7,9,10-tetrahydro-2′H,5H-spiro[1,4-oxazino[4,3-a][1,8]naphthyridine-6,5′-pyrimidine]-2′,4′,6′(1′H,3′H)-trione]",8 µM
7,"Cc1ccccc1-c1cnc2c(c1)CC1(C(=O)NC(=O)NC1=O)[C@H]1[C@H](C)O[C@H](C)CN21 (relative stereo) [Example 82, (6aS,7S,9R)-rel-7,9-Dimethyl-3-(2-methylphenyl)-6a,7,9,10-tetrahydro-2′H,5H-spiro[1,4-oxazino[4,3-a][1,8]naphthyridine-6,5′-pyrimidine]-2′,4′,6′(1′H,3′H)-trione]",> 83 µM
8,"COc1ccccc1-c1cnc2c(c1)CC1(C(=O)NC(=O)NC1=O)[C@H]1[C@H](C)O[C@H](C)CN21 (relative stereo) [Example 83, (6aS,7S,9R)-rel-3-(2-Methoxyphenyl)-7,9-dimethyl-6a,7,9,10-tetrahydro-2′H,5H-spiro[1,4-oxazino[4,3-a][1,8]naphthyridine-6,5′-pyrimidine]-2′,4′,6′(1′H,3′H)-trione]",> 83 µM
9,"C[C@@H]1CN2c3ncc(-c4ccccc4)cc3CC3(C(=O)NC(=O)NC3=O)[C@H]2[C@H](C)O1 (relative stereo) [Example 84, (6aS,7S,9R)-rel-7,9-Dimethyl-3-phenyl-6a,7,9,10-tetrahydro-2′H,5H-spiro[1,4-oxazino[4,3-a][1,8]naphthyridine-6,5′-pyrimidine]-2′,4′,6′(1′H,3′H)-trione]",7 µM
10,"C[C@@H]1CN2c3ccc(-c4nccs4)nc3CC3(C(=O)NC(=O)NC3=O)[C@H]2[C@H](C)O1 (relative stereo) [Example 85, (2R,4S,4aS)-rel-2,4-Dimethyl-8-(1,3-thiazol-2-yl)-1,2,4,4a-tetrahydro-2′H,6H-spiro[1,4-oxazino[4,3-a][1,5]naphthyridine-5,5′-pyrimidine]-2′,4′,6′(1′H,3′H)-trione]",8 µM
11,"C[C@@H]1CN2c3ncc(-c4nc5ccccc5s4)cc3CC3(C(=O)NC(=O)NC3=O)[C@H]2[C@H](C)O1 (relative stereo) [Example 87, (6aS,7S,9R)-rel-3-(1,3-Benzothiazol-2-yl)-7,9-dimethyl-6a,7,9,10-tetrahydro-2′H,5H-spiro[1,4-oxazino[4,3-a][1,8]naphthyridine-6,5′-pyrimidine]-2′,4′,6′(1′H,3′H)-trione]",4 µM
12,"C[C@@H]1CN2c3ccc(-c4nc5ccccc5s4)nc3CC3(C(=O)NC(=O)NC3=O)[C@H]2[C@H](C)O1 (relative stereo) [Example 88, (2R,4S,4aS)-rel-8-(1,3-Benzothiazol-2-yl)-2,4-dimethyl-1,2,4,4a-tetrahydro-2′H,6H-spiro[1,4-oxazino[4,3-a][1,5]naphthyridine-5,5′-pyrimidine]-2′,4′,6′(1′H,3′H)-trione]",2 µM
13,"C[C@@H]1CN2c3cnc(-c4nc5ccccc5s4)cc3CC3(C(=O)NC(=O)NC3=O)[C@H]2[C@H](C)O1 (relative stereo) [Example 89, (6aS,7S,9R)-rel-3-(1,3-benzothiazol-2-yl)-7,9-dimethyl-6a,7,9,10-tetrahydro-2′H,5H-spiro[1,4-oxazino[4,3-a][1,7]naphthyridine-6,5′-pyrimidine]-2′,4′,6′(1′H,3′H)-trione]",11 µM
14,"C[C@@H]1CN2c3ncc(-c4cncn4C)cc3CC3(C(=O)NC(=O)NC3=O)[C@H]2[C@H](C)O1 (relative stereo) [Example 90, (6aS,7S,9R)-rel-7,9-Dimethyl-3-(1-methyl-1H-imidazol-5-yl)-6a,7,9,10-tetrahydro-2′H,5H-spiro[1,4-oxazino[4,3-a][1,8]naphthyridine-6,5′-pyrimidine]-2′,4′,6′(1′H,3′H)-trione]",21 µM
15,"COc1nccnc1-c1cnc2c(c1)CC1(C(=O)NC(=O)NC1=O)[C@H]1[C@H](C)O[C@H](C)CN21 (relative stereo) [Example 92, (6aS,7S,9R)-rel-3-(3-Methoxypyrazin-2-yl)-7,9-dimethyl-6a,7,9,10-tetrahydro-2′H,5H-spiro[1,4-oxazino[4,3-a][1,8]naphthyridine-6,5′-pyrimidine]-2′,4′,6′(1′H,3′H)-trione]",20 µM
16,"C[C@@H]1CN2c3ccc(-c4ccnnc4)nc3CC3(C(=O)NC(=O)NC3=O)[C@H]2[C@H](C)O1 (relative stereo) [Example 95, (2R,4S,4aS)-rel-2,4-Dimethyl-8-(pyridazin-4-yl)-1,2,4,4a-tetrahydro-2′H,6H-spiro[1,4-oxazino[4,3-a][1,5]naphthyridine-5,5′-pyrimidine]-2′,4′,6′(1′H,3′H)-trione]",2 µM
17,"C[C@@H]1CN2c3cnc(-c4ccnnc4)cc3CC3(C(=O)NC(=O)NC3=O)[C@H]2[C@H](C)O1 (relative stereo) [Example 96, (6aS,7S,9R)-rel-7,9-Dimethyl-3-(pyridazin-4-yl)-6a,7,9,10-tetrahydro-2′H,5H-spiro[1,4-oxazino[4,3-a][1,7]naphthyridine-6,5′-pyrimidine]-2′,4′,6′(1′H,3′H)-trione]",3 µM
18,"C[C@@H]1CN2c3ncc(-c4ncco4)cc3CC3(C(=O)NC(=O)NC3=O)[C@H]2[C@H](C)O1 (relative stereo) [Example 97, (6aS,7S,9R)-rel-7,9-Dimethyl-3-(1,3-oxazol-2-yl)-6a,7,9,10-tetrahydro-2′H,5H-spiro[1,4-oxazino[4,3-a][1,8]naphthyridine-6,5′-pyrimidine]-2′,4′,6′(1′H,3′H)-trione]",44 µM
19,"C[C@@H]1CN2c3ccc(-c4ncco4)nc3CC3(C(=O)NC(=O)NC3=O)[C@H]2[C@H](C)O1 (relative stereo) [Example 98, (2R,4S,4aS)-rel-2,4-Dimethyl-8-(1,3-oxazol-2-yl)-1,2,4,4a-tetrahydro-2′H,6H-spiro[1,4-oxazino[4,3-a][1,5]naphthyridine-5,5′-pyrimidine]-2′,4′,6′(1′H,3′H)-trione]",51 µM
20,"C[C@@H]1CN2c3cnc(-c4ncco4)cc3CC3(C(=O)NC(=O)NC3=O)[C@H]2[C@H](C)O1 (relative stereo) [Example 99, (6aS,7S,9R)-rel-7,9-Dimethyl-3-(1,3-oxazol-2-yl)-6a,7,9,10-tetrahydro-2′H,5H-spiro[1,4-oxazino[4,3-a][1,7]naphthyridine-6,5′-pyrimidine]-2′,4′,6′(1′H,3′H)-trione]",44 µM
21,"C[C@@H]1CN2c3ncc(-c4cscn4)cc3CC3(C(=O)NC(=O)NC3=O)[C@H]2[C@H](C)O1 (relative stereo) [Example 100, (6aS,7S,9R)-rel-7,9-Dimethyl-3-(1,3-thiazol-4-yl)-6a,7,9,10-tetrahydro-2′H,5H-spiro[1,4-oxazino[4,3-a][1,8]naphthyridine-6,5′-pyrimidine]-2′,4′,6′(1′H,3′H)-trione]",7 µM

# Same assay, conditions: E. coli DNA gyrase supercoiling; asterisk: no IC50 obtained at or below the indicated concentration; read-out: IC50
row,SMILES,IC50
1,"COc1nccnc1-c1cc2c(cn1)N1C[C@@H](C)O[C@@H](C)[C@@H]1C1(C2)C(=O)NC(=O)NC1=O (relative stereo) [Example 93, (6aS,7S,9R)-rel-3-(3-Methoxypyrazin-2-yl)-7,9-dimethyl-6a,7,9,10-tetrahydro-2′H,5H-spiro[1,4-oxazino[4,3-a][1,7]naphthyridine-6,5′-pyrimidine]-2′,4′,6′(1′H, 3H)-trione]",> 83 µM
2,"C[C@@H]1CN2c3ncc(-c4ccnnc4)cc3CC3(C(=O)NC(=O)NC3=O)[C@H]2[C@H](C)O1 (relative stereo) [Example 94, (6aS,7S,9R)-rel-7,9-Dimethyl-3-(pyridazin-4-yl)-6a,7,9,10-tetrahydro-2′H,5H-spiro[1,4-oxazino[4,3-a][1,8]naphthyridine-6,5′-pyrimidine]-2′,4′,6′(1′H, 3H)-trione]",7 µM
